Experiments:
HIV = conditions: cited from earlier work
HIV-1 (strain IIIB) = experiment: MT4 Cell Antiviral Assay; type: cell-based; conditions: Human immunodeficiency virus 1, 120 h; HIV-1 strain IIIB in MT4 cells, 5 days, Cell Titer-Glo; 50% decrease in HIV-induced cytopathic effect
Procedure: Antiviral HIV activity and compound-induced cytotoxicity were measured in parallel based on a modified protocol of the propidium iodide based procedure in the human T-cell lymphotropic virus transformed cell line MT4. Aliquots of the test compounds were serially diluted in DMSO plated in 96-well plates. Exponentially growing MT4 cells were harvested and pelleted. Cell pellets were resuspended in fresh medium (RPMI 1640, 10% FCS, and gentamycin. Cell aliquots were infected by the addition of HIV-1 (strain IIIB) diluted to give a viral multiplicity of infection of 300×TCID50/million cells. A similar cell aliquot was diluted with medium to provide a mock-infected control. Cell infection was allowed to proceed for 1 hr at 37° C. in a tissue culture incubator with humidified 5% CO2 atmosphere. After the 1 hr incubation the virus/cell suspensions were diluted with fresh medium, and added to each well of the plate containing pre-diluted compound. Plates were then placed in a tissue culture incubator with humidified 5% CO2 for 5 days. […] The plates were analyzed in an automated plate reader for luminescence.assay. The control and standard used was efavirinz tested over a concentration range of 0.001 to 1 μM in every assay. The expected range of IC50 values for efavirinz is 0.1 to 1 nM.
The antiviral effect of a test compound is reported as an IC50, i.e. the inhibitory concentration that would produce a 50% decrease in the HIV-induced cytopathic effect. This effect is measured by the amount of test compound required to restore 50% of the cell growth of HIV-infected MT4 cells, compared to uninfected MT4 cell controls. IC50 was calculated by RoboSage, Automated Curve Fitting Program.
For each assay plate, the results (of wells containing uninfected cells or infected cells with no compound were averaged, respectively. For measurements of compound-induced cytotoxicty, results from wells containing various compound concentrations and uninfected cells were compared to the average of uninfected cells without compound treatment. Percent of cells remaining is determined by the following formula: Percent of cells remaining=(compound-treated uninfected cells/untreated uninfected cells)×100.
A level of percent of cells remaining of 79% or less indicates a significant level of direct compound-induced cytotoxicity for the compound at that concentration. When this condition occurs the results from the compound-treated infected wells at this concentration are not included in the calculation of IC50.
For measurements of compound antiviral activity, results from wells containing various compound concentrations and infected cells are compared to the average of uninfected and infected cells without compound treatment. Percent inhibition of virus is determined by the following formula: Percent inhibition of virus=(1−((ave. untreated uninfected cells−treated infected cells)/(ave. untreated uninfected cells−ave. untreated infected cells)))×100

Structure (SMILES)	mean reduction of HIV viral load (HIV; patients with trough levels >=20 μg/mL and without key baseline Gag polymorphisms at Q369, V370 or T371)	viral load reduction versus patients without Gag polymorphisms (HIV; users with Gag polymorphisms at Q369, V370 or T371)	IC50 (HIV-1 (strain IIIB))
C=C(C)[C@@H]1CC[C@]2(C(=O)O)CC[C@]3(C)[C@H](CC[C@@H]4[C@@]5(C)CC[C@H](OC(=O)CC(C)(C)C(=O)O)C(C)(C)[C@@H]5CC[C@]43C)[C@@H]12 [Bevirimat]	1.3 log10/mL	significantly lower load reductions	–
CC(C)C1=C2[C@H]3CC[C@@H]4[C@@]5(C)CC[C@H](OC(=O)CC(C)(C)C(=O)O)C(C)(C)[C@@H]5CC[C@@]4(C)[C@]3(C)CC[C@@]2(/C=C/C(=O)N[C@@H](C)c2cccc(Cl)c2)CC1 [Example 34, 4-(((3aR,5aR,5bR,7aR,9S,11aR,11bR,13aS)-3a-((E)-3-(((S)-1-(3-Chlorophenyl)ethyl)amino)-3-oxoprop-1-en-1-yl)-1-isopropyl-5a,5b,8,8,11a-pentamethyl-3,3a,4,5,5a,5b,6,7,7a,8,9,10,11,11a,11b,12,13,13a-octadecahydro-2H-cyclopenta[a]chrysen-9-yl)oxy)-2,2-dimethyl-4-oxobutanoic acid]	–	–	10 to 250 nM
CC(C)C1=C2[C@H]3CC[C@@H]4[C@@]5(C)CC[C@H](OC(=O)CC(C)(C)C(=O)O)C(C)(C)[C@@H]5CC[C@@]4(C)[C@]3(C)CC[C@@]2(/C=C/C(=O)NC2(c3cccc(Cl)c3)CC2)CC1=O [Example 24, 4-(((3aS,5aR,5bR,7aR,9S,11aR,11bR,13aS)-3a-((E)-3-((1-(3-Chlorophenyl)cyclopropyl)amino)-3-oxoprop-1-en-1-yl)-1-isopropyl-5a,5b,8,8,11a-pentamethyl-2-oxo-3,3a,4,5,5a,5b,6,7,7a,8,9,10,11,11a,11b,12,13,13a-octadecahydro-2H-cyclopenta[a]chrysen-9-yl)oxy)-2,2-dimethyl-4-oxobutanoic acid]	–	–	< 10 nM
CC(C)C1=C2[C@H]3CC[C@@H]4[C@@]5(C)CC[C@H](OC(=O)CC(C)(C)C(=O)O)C(C)(C)[C@@H]5CC[C@@]4(C)[C@]3(C)CC[C@@]2(/C=C/C(=O)NC2(c3ncc(Cl)cn3)CC2)CC1=O [Example 26, 4-(((3aS,5aR,5bR,7aR,9S,11aR,11bR,13aS)-3a-((E)-3-((1-(5-Chloropyrimidin-2-yl)cyclopropyl)amino)-3-oxoprop-1-en-1-yl)-1-isopropyl-5a,5b,8,8,11a-pentamethyl-2-oxo-3,3a,4,5,5a,5b,6,7,7a,8,9,10,11,11a,11b,12,13,13a-octadecahydro-2H-cyclopenta[a]chrysen-9-yl)oxy)-2,2-dimethyl-4-oxobutanoic acid]	–	–	< 10 nM
CC(C)C1=C2[C@H]3CC[C@@H]4[C@@]5(C)CC[C@H](OC(=O)CC(C)(C)C(=O)O)C(C)(C)[C@@H]5CC[C@@]4(C)[C@]3(C)CC[C@@]2(/C=C/C(=O)N[C@@H](C)c2ccc(Cl)cc2)CC1=O [Example 6, 4-(((3aS,5aR,5bR,7aR,9S,11aR,11bR,13aS)-3a-((E)-3-(((S)-1-(4-Chlorophenyl)ethyl)amino)-3-oxoprop-1-en-1-yl)-1-isopropyl-5a,5b,8,8,11a-pentamethyl-2-oxo-3,3a,4,5,5a,5b,6,7,7a,8,9,10,11,11a,11b,12,13,13a-octadecahydro-2H-cyclopenta[a]chrysen-9-yl)oxy)-2,2-dimethyl-4-oxobutanoic acid]	–	–	10 to 250 nM
C/C(=C\[C@@]12CC[C@]3(C)[C@H](CC[C@@H]4[C@@]5(C)CC[C@H](OC(=O)CC(C)(C)C(=O)O)C(C)(C)[C@@H]5CC[C@]43C)C1=C(C(C)C)C(=O)C2)C(=O)NC1(c2ccc(Cl)cc2)CC1 [Example 27, 4-(((3aS,5aR,5bR,7aR,9S,11aR,11bR,13aS)-3a-((E)-3-((1-(4-Chlorophenyl)cyclopropyl)amino)-2-methyl-3-oxoprop-1-en-1-yl)-1-isopropyl-5a,5b,8,8,11a-pentamethyl-2-oxo-3,3a,4,5,5a,5b,6,7,7a,8,9,10,11,11a,11b,12,13,13a-octadecahydro-2H-cyclopenta[a]chrysen-9-yl)oxy)-2,2-dimethyl-4-oxobutanoic acid]	–	–	< 10 nM
CC(C)C1=C2[C@H]3CC[C@@H]4[C@@]5(C)CC[C@H](OC(=O)CC(C)(C)C(=O)O)C(C)(C)[C@@H]5CC[C@@]4(C)[C@]3(C)CC[C@@]2(/C=C/C(=O)N[C@@H](C)c2ccncn2)CC1=O [Example 8, 4-(((3aS,5aR,5bR,7aR,9S,11aR,11bR,13aS)-1-Isopropyl-5a,5b,8,8,11a-pentamethyl-2-oxo-3a-((E)-3-oxo-3-(((S)-1-(pyrimidin-4-yl)ethyl)amino)prop-1-en-1-yl)-3,3a,4,5,5a,5b,6,7,7a,8,9,10,11,11a,11b,12,13,13a-octadecahydro-2H-cyclopenta[a]chrysen-9-yl)oxy)-2,2-dimethyl-4-oxobutanoic acid]	–	–	10 to 250 nM
CC(C)C1=C2[C@H]3CC[C@@H]4[C@@]5(C)CC[C@H](OC(=O)CC(C)(C)C(=O)O)C(C)(C)[C@@H]5CC[C@@]4(C)[C@]3(C)CC[C@@]2(/C=C/C(=O)NC2(c3ccccn3)CC2)CC1=O [Example 12, 4-(((3aS,5aR,5bR,7aR,9S,11aR,11bR,13aS)-1-Isopropyl-5a,5b,8,8,11a-pentamethyl-2-oxo-3a-((E)-3-oxo-3-((1-(pyridin-2-yl)cyclopropyl)amino)prop-1-en-1-yl)-3,3a,4,5,5a,5b,6,7,7a,8,9,10,11,11a,11b,12,13,13a-octadecahydro-2H-cyclopenta[a]chrysen-9-yl)oxy)-2,2-dimethyl-4-oxobutanoic acid]	–	–	< 10 nM
CC(C)C1=C2[C@H]3CC[C@@H]4[C@@]5(C)CC[C@H](OC(=O)CC(C)(C)C(=O)O)C(C)(C)[C@@H]5CC[C@@]4(C)[C@]3(C)CC[C@@]2(/C=C/C(=O)N[C@H](C)c2ccccn2)CC1=O [Example 14, 4-(((3aS,5aR,5bR,7aR,9S,11aR,11bR,13aS)-1-Isopropyl-5a,5b,8,8,11a-pentamethyl-2-oxo-3a-((E)-3-oxo-3-(((R)-1-(pyridin-2-yl)ethyl)amino)prop-1-en-1-yl)-3,3a,4,5,5a,5b,6,7,7a,8,9,10,11,11a,11b,12,13,13a-octadecahydro-2H-cyclopenta[a]chrysen-9-yl)oxy)-2,2-dimethyl-4-oxobutanoic acid]	–	–	10 to 250 nM
CC(C)C1=C2[C@H]3CC[C@@H]4[C@@]5(C)CC[C@H](OC(=O)CC(C)(C)C(=O)O)C(C)(C)[C@@H]5CC[C@@]4(C)[C@]3(C)CC[C@@]2(/C=C/C(=O)NC2(c3ccccc3Cl)CC2)CC1=O [Example 20, 4-(((3aS,5aR,5bR,7aR,9S,11aR,11bR,13aS)-3a-((E)-3-((1-(2-Chlorophenyl)cyclopropyl)amino)-3-oxoprop-1-en-1-yl)-1-isopropyl-5a,5b,8,8,11a-pentamethyl-2-oxo-3,3a,4,5,5a,5b,6,7,7a,8,9,10,11,11a,11b,12,13,13a-octadecahydro-2H-cyclopenta[a]chrysen-9-yl)oxy)-2,2-dimethyl-4-oxobutanoic acid]	–	–	10 to 250 nM
CC(C)C1=C2[C@H]3CC[C@@H]4[C@@]5(C)CC[C@H](OC(=O)CC(C)(C)C(=O)O)C(C)(C)[C@@H]5CC[C@@]4(C)[C@]3(C)CC[C@@]2(/C=C/C(=O)NC2(c3ncccn3)CC2)CC1=O [Example 13, 4-(((3aS,5aR,5bR,7aR,9S,11aR,11bR,13aS)-1-isopropyl-5a,5b,8,8,11a-pentamethyl-2-oxo-3a-((E)-3-oxo-3-((1-(pyrimidin-2-yl)cyclopropyl)amino)prop-1-en-1-yl)-3,3a,4,5,5a,5b,6,7,7a,8,9,10,11,11a,11b,12,13,13a-octadecahydro-2H-cyclopenta[a]chrysen-9-yl)oxy)-2,2-dimethyl-4-oxobutanoic acid]	–	–	10 to 250 nM
